Experimental findings from patent US9434743B2, “Indazole derivatives” (TAKEDA PHARMACEUTICAL COMPANY LIMITED, priority 2012, dated 2016) are described below.

Assay [1] has as its target T1, human MetAP2 enzyme (Homo sapiens, UniProt P50579). Nature of the assay: MetAP2 enzyme assay, enzyme complexed with manganese ions. The following applies: MetAP2 Mn pIC50, MetAP2 enzyme complexed with manganese ions; Met-AMC substrate at Km.
Assay [2] addresses T1, human MetAP2 enzyme. Description: MetAP2 enzyme assay, enzyme complexed with cobalt ions. The following applies: MetAP2 Co pIC50, MetAP2 enzyme complexed with cobalt ions; Met-AMC substrate at Km.

pIC50: −log10 of the molar value.

T1 sequence (P50579 whole entry): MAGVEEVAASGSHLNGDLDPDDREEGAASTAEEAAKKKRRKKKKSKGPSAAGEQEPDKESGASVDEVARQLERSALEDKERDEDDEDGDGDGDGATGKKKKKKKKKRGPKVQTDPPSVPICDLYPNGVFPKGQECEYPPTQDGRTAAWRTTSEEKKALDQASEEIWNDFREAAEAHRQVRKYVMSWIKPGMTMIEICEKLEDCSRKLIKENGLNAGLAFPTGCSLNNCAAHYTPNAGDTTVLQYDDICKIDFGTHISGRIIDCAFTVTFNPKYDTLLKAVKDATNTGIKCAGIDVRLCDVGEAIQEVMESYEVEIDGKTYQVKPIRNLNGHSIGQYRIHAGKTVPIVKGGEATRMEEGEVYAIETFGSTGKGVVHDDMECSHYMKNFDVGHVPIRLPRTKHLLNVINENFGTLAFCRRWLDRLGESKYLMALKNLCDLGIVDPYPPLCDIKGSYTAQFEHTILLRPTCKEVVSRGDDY

A word on the pIC50: it is the negative decadic logarithm of the IC50, by convention in mol/L. On to `CNC(=O)Cn1c(=O)c(-c2cc(C(F)(F)F)cc3[nH]ncc23)cn(C)c1=O` [Example 301, N-methyl-2-(3-methyl-2,6-dioxo-5-(6-(trifluoromethyl)-1H-indazol-4-yl)-2,3-dihydropyrimidin-1(6H)-yl)acetamide], for which the pIC50 in assay [1] is 7.80; in assay [2] it was 6.00.
In the case of `COc1ccc(-c2cc(C(F)(F)F)cc3[nH]ncc23)c(CO)c1` [Example 189, (5-methoxy-2-(6-(trifluoromethyl)-1H-indazol-4-yl)phenyl)methanol], the pIC50 is 8.30 in assay [1] and 7.30 in assay [2].
As to `CN1C(=O)Cc2cc(-c3cc(C(F)(F)F)cc4[nH]ncc34)ccc21` [Example 234, 1-methyl-5-(6-(trifluoromethyl)-1H-indazol-4-yl)indolin-2-one], the pIC50 in assay [1] is 8.40; in assay [2] it was 7.70.
The corresponding values for `CN(C)CCn1c(=O)c(-c2cc(C(F)(F)F)cc3[nH]ncc23)cn(C)c1=O` [Example 319, 3-(2-(dimethylamino)ethyl)-1-methyl-5-(6-(trifluoromethyl)-1H-indazol-4-yl)pyrimidine-2,4(1H,3H)-dione] are 7.40 and 5.90.
For `CNS(=O)(=O)c1cccc(-c2cc(C(F)(F)F)cc3[nH]ncc23)c1` [Example 104, N-methyl-3-(6-(trifluoromethyl)-1H-indazol-4-yl)benzenesulfonamide], the figures for the pIC50 in assay [1] and in assay [2] were 7.40 and 6.50, respectively.
As to `Cn1cc2c(-c3cc(C(F)(F)F)cc4[nH]ncc34)cccc2n1` [Example 15, 2′-methyl-6-(trifluoromethyl)-1H,2′H-4,4′-biindazole], the figures for the pIC50 in assay [1] and in assay [2] were 8.20 and 8.00, respectively.
Consider `Fc1c[nH]c2ncc(-c3cc(C(F)(F)F)cc4[nH]ncc34)cc12` [Example 339, 4-(3-fluoro-1H-pyrrolo[2,3-b]pyridin-5-yl)-6-(trifluoromethyl)-1H-indazole], for which the pIC50 in assay [1] is 7.70; in assay [2] it was 6.90.
Regarding `O=S(=O)(c1ccc(-c2cc(C(F)(F)F)cc3[nH]ncc23)cc1)n1cccn1` [Example 223, 4-(4-(1H-pyrazol-1-ylsulfonyl)phenyl)-6-(trifluoromethyl)-1H-indazole], the values for the pIC50 in assay [1] and in assay [2] were 8.10 and 6.90, respectively.
Turning to `Cc1ccc(C(=O)N2CC(O)C2)cc1-c1cc(C(F)(F)F)cc2[nH]ncc12` [Example 369, (3-hydroxyazetidin-1-yl)(4-methyl-3-(6-(trifluoromethyl)-1H-indazol-4-yl)phenyl)methanone], the pIC50 in assay [1] was 8.00; in assay [2], 7.50.
As for `NS(=O)(=O)c1ccc(-c2cc(C(F)(F)F)cc3[nH]ncc23)cc1Cl` [Example 343, 2-chloro-4-(6-(trifluoromethyl)-1H-indazol-4-yl)benzenesulfonamide], the pIC50 is 8.20 in assay [1] and 7.00 in assay [2].
`O=C1Cc2ccc(-c3cc(C(F)(F)F)cc4[nH]ncc34)cc2N1` [Example 239, 6-(6-(trifluoromethyl)-1H-indazol-4-yl)indolin-2-one]: the pIC50 was 8.30 in assay [1] and 7.80 in assay [2].
With `CS(=O)(=O)Nc1ccccc1-c1cc(C(F)(F)F)cc2[nH]ncc12` [Example 44, N-(2-(6-(trifluoromethyl)-1H-indazol-4-yl)phenyl)methanesulfonamide], the pIC50 in assay [1] is 8.30; in assay [2] it was 7.30.
Turning to `O=C(c1c[nH]c(=O)c(-c2cc(C(F)(F)F)cc3[nH]ncc23)c1)N1CCOCC1` [Example 298, 5-(morpholine-4-carbonyl)-3-(6-(trifluoromethyl)-1H-indazol-4-yl)pyridin-2(1H)-one], the pIC50 in assay [1] is 8.00; in assay [2], 6.40.
On to `FC(F)(F)c1cc(-c2ccnc3ccccc23)c2cn[nH]c2c1` [Example 112, 4-(6-(trifluoromethyl)-1H-indazol-4-yl)quinoline], for which the pIC50 in assay [1] is 7.90; in assay [2], 7.30.
Regarding `COc1ncc(-c2cc(C(F)(F)F)cc3[nH]ncc23)c2cc[nH]c12` [Example 291, 4-(7-methoxy-1H-pyrrolo[2,3-c]pyridin-4-yl)-6-(trifluoromethyl)-1H-indazole], the pIC50 in assay [1] was 8.00; in assay [2], 7.20.
On to `FC(F)(F)c1cc(-c2ccc(N3CCOCC3)nc2)c2cn[nH]c2c1` [Example 89, 4-(5-(6-(trifluoromethyl)-1H-indazol-4-yl)pyridin-2-yl)morpholine], for which the pIC50 in assay [1] is 8.40; in assay [2] it was 7.70.
On the same counts, the results for `COc1ccc(CO)cc1-c1cc(C(F)(F)F)cc2[nH]ncc12` [Example 185, (4-methoxy-3-(6-(trifluoromethyl)-1H-indazol-4-yl)phenyl)methanol] are 8.40 and 7.80.
As for `FC(F)(F)c1cc(-c2cnc3ccccn23)c2cn[nH]c2c1` [Example 149, 4-(imidazo[1,2-a]pyridin-3-yl)-6-(trifluoromethyl)-1H-indazole], the pIC50 in assay [1] is 7.20; in assay [2], 6.30.
As for `Cc1cn(C)c(-c2cc(C(F)(F)F)cc3[nH]ncc23)n1` [Example 163, 4-(1,4-dimethyl-1H-imidazol-2-yl)-6-(trifluoromethyl)-1H-indazole], the values for the pIC50 in assay [1] and in assay [2] were 7.90 and 6.10, respectively.
Consider `C[C@H](CO)Nc1ncc(-c2cc(C(F)(F)F)cc3[nH]ncc23)cn1` [Example 206, (R)-2-(5-(6-(trifluoromethyl)-1H-indazol-4-yl)pyrimidin-2-ylamino)propan-1-ol], for which the pIC50 in assay [1] was 8.10; in assay [2], 7.10.
On the same counts, the results for `Cc1cc(=O)n(CC#N)cc1-c1cc(C(F)(F)F)cc2[nH]ncc12` [Example 408, 2-(4-methyl-2-oxo-5-(6-(trifluoromethyl)-1H-indazol-4-yl)pyridin-1(2H)-yl)acetonitrile] are 8.40 and 7.10.
For `CN1CCN(C(=O)c2cccc(-c3cc(C(F)(F)F)cc4[nH]ncc34)c2)CC1` [Example 84, (4-methylpiperazin-1-yl)(3-(6-(trifluoromethyl)-1H-indazol-4-yl)phenyl)methanone], the pIC50 in assay [1] is 8.50; in assay [2], 7.70.
As for `FC(F)(F)c1cc(-c2cccc(-n3cccn3)c2)c2cn[nH]c2c1` [Example 69, 4-(3-(1H-pyrazol-1-yl)phenyl)-6-(trifluoromethyl)-1H-indazole], the negative-log IC50 (pIC50) in assay [1] is 8.20; in assay [2] it was 6.80.
On to `NC(=O)c1ccccc1-c1cc(C(F)(F)F)cc2[nH]ncc12` [Example 10, 2-(6-(trifluoromethyl)-1H-indazol-4-yl)benzamide], for which the pIC50 is 7.50 in assay [1] and 5.90 in assay [2].
For the molecule `C[C@@H](O)CNC(=O)c1c[nH]c(=O)c(-c2cc(C(F)(F)F)cc3[nH]ncc23)c1` [Example 336, (R)—N-(2-hydroxypropyl)-6-oxo-5-(6-(trifluoromethyl)-1H-indazol-4-yl)-1,6-dihydropyridine-3-carboxamide], the pIC50 is 8.00 in assay [1] and 6.20 in assay [2].
With `Cc1cc(C(=O)N2CC(O)C2)ccc1-c1cc(C(F)(F)F)cc2[nH]ncc12` [Example 361, (3-hydroxyazetidin-1-yl)(3-methyl-4-(6-(trifluoromethyl)-1H-indazol-4-yl)phenyl)methanone], the pIC50 in assay [1] was 8.00; in assay [2] it was 7.80.
For `COc1ncc(-c2cc(C(F)(F)F)cc3[nH]ncc23)cn1` [Example 246, 4-(2-methoxypyrimidin-5-yl)-6-(trifluoromethyl)-1H-indazole], the pIC50 in assay [1] was 8.50; in assay [2], 7.00.
On the same counts, the results for `FC(F)(F)c1cc(-c2cccnc2)c2cn[nH]c2c1` [Example 19, 4-(pyridin-3-yl)-6-(trifluoromethyl)-1H-indazole] are 8.50 and 7.20.
As for `COc1nc(Cl)ccc1-c1cc(C(F)(F)F)cc2[nH]ncc12` [Example 392, 4-(6-chloro-2-methoxypyridin-3-yl)-6-(trifluoromethyl)-1H-indazole], the values for the pIC50 in assay [1] and in assay [2] were 7.90 and 6.70, respectively.
In the case of `CS(=O)(=O)c1ccc(-c2cc(C(F)(F)F)cc3[nH]ncc23)cc1` [Example 347, 4-(4-(methylsulfonyl)phenyl)-6-(trifluoromethyl)-1H-indazole], the figures for the pIC50 in assay [1] and in assay [2] were 8.20 and 7.20, respectively.
Take `Cn1ccc2c(-c3cc(C(F)(F)F)cc4[nH]ncc34)cccc21` [Example 77, 4-(1-methyl-1H-indol-4-yl)-6-(trifluoromethyl)-1H-indazole]: the pIC50 in assay [1] is 8.20; in assay [2], 7.10.
The corresponding values for `CN(C)c1ncc(-c2cc(C(F)(F)F)cc3[nH]ncc23)cn1` [Example 247, N,N-dimethyl-5-(6-(trifluoromethyl)-1H-indazol-4-yl)pyrimidin-2-amine] are 8.40 and 7.30.
As to `N#Cc1cccc(-c2cc(C(F)(F)F)cc3[nH]ncc23)c1` [Example 33, 3-(6-(trifluoromethyl)-1H-indazol-4-yl)benzonitrile], the pIC50 is 8.00 in assay [1] and 7.00 in assay [2].
Consider `Cc1ccc(C(=O)N2CCC(CO)C2)cc1-c1cc(C(F)(F)F)cc2[nH]ncc12` (stereo not drawn) [Example 371, (3-(hydroxymethyl)pyrrolidin-1-yl)(4-methyl-3-(6-(trifluoromethyl)-1H-indazol-4-yl)phenyl)methanone], for which the values for the pIC50 in assay [1] and in assay [2] were 7.80 and 7.30, respectively.
Consider `FC(F)(F)c1cc(-c2cnc(N3CCOCC3)nc2)c2cn[nH]c2c1` [Example 118, 4-(5-(6-(trifluoromethyl)-1H-indazol-4-yl)pyrimidin-2-yl)morpholine], for which the pIC50 is 8.20 in assay [1] and 7.40 in assay [2].
Take `CS(=O)(=O)c1cncc(-c2cc(C(F)(F)F)cc3[nH]ncc23)c1` [Example 105, 4-(5-(methylsulfonyl)pyridin-3-yl)-6-(trifluoromethyl)-1H-indazole]: the pIC50 in assay [1] was 8.00; in assay [2], 6.50.
